# Ends that are not written are not given here.
# Key:
# [1] = biological target: T1, native CR2 present on Raji cells (Homo sapiens, UniProt P20023); assay: Inhibition of Zymosan-C3 rosette formation in Raji cells; type: cell-based; conditions: 10^5 Raji cells; zero to 200 μg tested, amount for the value not stated
# T1 construct: native CR2 present on Raji cells; endogenous in cells; host or cells: Raji cells
# T1 sequence (P20023 21-1033): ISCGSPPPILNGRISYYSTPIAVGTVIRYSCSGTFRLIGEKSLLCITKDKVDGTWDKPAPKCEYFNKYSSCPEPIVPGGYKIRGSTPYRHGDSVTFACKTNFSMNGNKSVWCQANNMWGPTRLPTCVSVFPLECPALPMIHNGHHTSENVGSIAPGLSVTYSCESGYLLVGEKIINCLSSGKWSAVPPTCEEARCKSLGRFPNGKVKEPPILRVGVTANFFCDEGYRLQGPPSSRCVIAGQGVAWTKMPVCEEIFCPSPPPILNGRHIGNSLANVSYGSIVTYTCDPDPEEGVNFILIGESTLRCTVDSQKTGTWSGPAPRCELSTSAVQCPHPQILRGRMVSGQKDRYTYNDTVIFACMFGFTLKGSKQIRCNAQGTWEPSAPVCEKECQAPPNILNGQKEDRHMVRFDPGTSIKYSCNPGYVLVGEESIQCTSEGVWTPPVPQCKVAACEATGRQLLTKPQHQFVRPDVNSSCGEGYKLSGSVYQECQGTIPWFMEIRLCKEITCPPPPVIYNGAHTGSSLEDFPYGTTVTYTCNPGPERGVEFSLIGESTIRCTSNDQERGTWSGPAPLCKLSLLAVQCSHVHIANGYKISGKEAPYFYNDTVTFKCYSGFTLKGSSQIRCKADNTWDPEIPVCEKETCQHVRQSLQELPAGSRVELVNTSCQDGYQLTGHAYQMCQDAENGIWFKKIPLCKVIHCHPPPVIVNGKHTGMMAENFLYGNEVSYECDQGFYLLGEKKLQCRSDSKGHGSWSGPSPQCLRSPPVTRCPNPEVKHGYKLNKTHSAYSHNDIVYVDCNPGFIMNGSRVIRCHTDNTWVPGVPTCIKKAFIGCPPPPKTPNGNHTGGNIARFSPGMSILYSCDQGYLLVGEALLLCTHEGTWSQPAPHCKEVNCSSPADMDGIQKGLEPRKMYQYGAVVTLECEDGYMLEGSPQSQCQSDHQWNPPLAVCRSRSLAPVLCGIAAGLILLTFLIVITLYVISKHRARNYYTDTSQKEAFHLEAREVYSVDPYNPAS
# Method: Fresh blood was collected from a healthy donor, maintained at room temperature for 2 hours, centrifuged at 2000×g for about 10 min and the resulting supernatant collected. Five mg of Zymosan A particles (Sigma Chemical Co., St. Louis, Mo.) were boiled for 30 min in 20 ml of 150 mM NaCl and washed three times in phosphate-buffered saline (PBS) to form activated particles. One mg of activated particles was admixed with 0.5 ml of the collected blood supernatant, the admixture was maintained at 37° C. for 30 minutes, and then the particles were washed 3 times in PBS. The washed particles were re-suspended in PBS at a concentration of 0.5 mg/ml to form a C3-coated Zymosan composition.
# Cultures containing 10^5 Raji cells were admixed with 100 microliters (μl ) of culture medium containing varying amounts (zero to 200 μg) of C3 or IFNαA derived polypeptides (p7 and p2 prepared in Example 1) or rIFNα prepared in Example 3b and the admixture maintained at 37° C. for 30 minutes to allow the CR2 ligand polypeptides to bind any CR2 receptor present on the Raji cells. Thereafter, 50 μl of the C3-coated Zymosan composition were added to each cell culture. […] More than 3 rosettes per cell were counted as C3 specific binding. Inhibition is expressed as the percent decrease in bound rosettes when comparing binding in the presence or absence of admixed polypeptide.
# [2] = biological target: T2, CR2 (Homo sapiens, UniProt P20023); assay: Inhibition of CR2 binding to rIFNα by competing polypeptides; conditions: competing polypeptide at 100ug/ml; rIFNα solid phase, CR2 liquid phase
# T2 construct: CR2 is isolated from Raji cells (ATTC CCL 86); endogenous in cells; host or cells: Raji cells (ATCC CCL 86)
# T2 sequence (P20023 21-1033): T1 sequence (P20023 21-1033)
# Method: A binding reaction admixture containing rIFNα in the solid phase and CR2 in the liquid phase was prepared as described in Example 3c except that a competing CR2 ligand shown in Table 6 was also included in the admixture at a concentration of 100ug/ml. Thereafter, the binding assay was conducted as described in Example 3c to measure the amount of CR2 specifically bound to rIFNα.
# [3] = system: rIFNα; conditions: BSA added to the binding reaction admixture in place of CR2
# Method: Various amounts of affinity-purified recombinant IFNα(rIFNα) prepared in Example 3b was added to the wells of Falcon EIA plates in 50 μl of coupling buffer (100 mM NaHC03, pH 9.3) and maintained for 2 hours at 37° C. to allow the IFNα to absorb onto the walls of the wells. Subsequently, the wells were washed by 3-fold immersion in PBS containing Tween 20 at 0.05% (referred to as PBST) and then PBST was added to the wells and the wells were maintained for 1 hour at 37° C. as a saturation step. After the wash and saturation steps, twice-affinity-purified CR2, prepared as described in Example 2, was added to each well in about 50 ul of PBST to form a binding reaction admixture containing 50 nanograms (ng) the amount of CR2 per 50 ul. The admixture was maintained for 2 hours at 37° C. to allow the added CR2 in the liquid phase to specifically bind with the rIFNα present immobilized in the solid phase on the walls of the wells. The wells were then washed with PBST to remove unbound CR2. […] The formation of p-nitrophenol was determined by measuring optical absorbance at 405 nm in a Titertek ELISA reader (Titertek Multiskan MCC/340, Metea, Va.).
Percent Inhibition of Zymosan-C3 Rosette Formation in Raji Cells [1],inhibition at 100 µg/mL [2],Binding to solid-phase rIFNα (in words) [3],Substance
55%,48%,,"QLNDLEACV [p2, QLNDLEACV]"
,0%,,"QLNDMEACV [p6, QLNDMEACV]"
,45%,,"QLNNLEACV [p4, QLNNLEACV]"
77%,50%,,"QLYNVEATS [p7, QLYNVEATS]"
,0%,,"SPGRGD [p10, SPGRGD]"
,,no dose dependent binding,bovine serum albumin [BSA]

# From US5310729A, “Interferon-related polypeptides as CR2 ligands and their use for modulating immune cell functions” (California Institute of Biological Research, priority 1990, dated 1994)
